Results reported in paper PMC9884089 (Journal of Medicinal Chemistry, 2023).
Where two headings read alike, the source gives them in different places.

How the values were obtained:
PARP16 = molecular target: T1, PARP16 (Homo sapiens, UniProt Q8N5Y8); experiment: Proximity-enhanced mono-ART activity assay, PARP16; type: biochemical; settings: > less than 50% inhibition
T1 construct: dockerin domain of Hungateiclostridium thermocellum Cel48s (C); made in house; host or cells: Escherichia coli
T1 sequence (Q8N5Y8 1-322): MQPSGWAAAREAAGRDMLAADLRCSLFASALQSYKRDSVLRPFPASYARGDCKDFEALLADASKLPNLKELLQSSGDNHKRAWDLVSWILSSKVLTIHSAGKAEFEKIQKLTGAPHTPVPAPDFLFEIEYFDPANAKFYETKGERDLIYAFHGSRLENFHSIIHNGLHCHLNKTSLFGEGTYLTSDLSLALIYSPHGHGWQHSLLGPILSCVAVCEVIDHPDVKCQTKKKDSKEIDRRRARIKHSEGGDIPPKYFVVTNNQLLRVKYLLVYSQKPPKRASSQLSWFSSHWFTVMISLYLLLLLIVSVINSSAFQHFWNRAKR
Procedure: We therefore had to improve the assay method and developed a homogeneous proximity enhanced assay for mono-ARTs.[47]
The proteins used in Tables 1–3 were produced as described earlier. Dockerin constructs to allow enhanced activity assays for mono-ARTs (Table 4) were produced in Escherichia coli with an N-terminal maltose binding protein (MBP) and a C-terminal dockerin domain from Hungateiclostridium thermocellum Cel48s as described recently.[47]
Inhibition experiments were performed using a homogenous assay measuring NAD+ consumption.[80]−[82] Reactions were carried out in quadruplicate, and IC50 curves were fitted using sigmoidal dose response curve (four variables) in GraphPad Prism version 8.02. […] Assay conditions for PARP2, TNKS2, PARP10, and PARP15 (Tables 1–3) were recently reported.[44] The conditions for the proximity-enhanced mono-ART assays (Table 4) were also reported recently.[47] PARP6 (400 nM) inhibition was measured using the standard buffer (50 mM sodium phosphate pH 7.0) for the enhanced activity assay using 500 nM NAD^+ and 18 h incubation in r.t..

PARP10 = molecular target: T2, PARP10 (Homo sapiens, UniProt Q53GL7); experiment: Cellular MARylation assay (immunoblot of PARP10 auto-MARylation); type: cell-based; settings: 10 μM, 16 h, HeLa cells
T2 construct: made in house
T2 sequence (Q53GL7 1-1025): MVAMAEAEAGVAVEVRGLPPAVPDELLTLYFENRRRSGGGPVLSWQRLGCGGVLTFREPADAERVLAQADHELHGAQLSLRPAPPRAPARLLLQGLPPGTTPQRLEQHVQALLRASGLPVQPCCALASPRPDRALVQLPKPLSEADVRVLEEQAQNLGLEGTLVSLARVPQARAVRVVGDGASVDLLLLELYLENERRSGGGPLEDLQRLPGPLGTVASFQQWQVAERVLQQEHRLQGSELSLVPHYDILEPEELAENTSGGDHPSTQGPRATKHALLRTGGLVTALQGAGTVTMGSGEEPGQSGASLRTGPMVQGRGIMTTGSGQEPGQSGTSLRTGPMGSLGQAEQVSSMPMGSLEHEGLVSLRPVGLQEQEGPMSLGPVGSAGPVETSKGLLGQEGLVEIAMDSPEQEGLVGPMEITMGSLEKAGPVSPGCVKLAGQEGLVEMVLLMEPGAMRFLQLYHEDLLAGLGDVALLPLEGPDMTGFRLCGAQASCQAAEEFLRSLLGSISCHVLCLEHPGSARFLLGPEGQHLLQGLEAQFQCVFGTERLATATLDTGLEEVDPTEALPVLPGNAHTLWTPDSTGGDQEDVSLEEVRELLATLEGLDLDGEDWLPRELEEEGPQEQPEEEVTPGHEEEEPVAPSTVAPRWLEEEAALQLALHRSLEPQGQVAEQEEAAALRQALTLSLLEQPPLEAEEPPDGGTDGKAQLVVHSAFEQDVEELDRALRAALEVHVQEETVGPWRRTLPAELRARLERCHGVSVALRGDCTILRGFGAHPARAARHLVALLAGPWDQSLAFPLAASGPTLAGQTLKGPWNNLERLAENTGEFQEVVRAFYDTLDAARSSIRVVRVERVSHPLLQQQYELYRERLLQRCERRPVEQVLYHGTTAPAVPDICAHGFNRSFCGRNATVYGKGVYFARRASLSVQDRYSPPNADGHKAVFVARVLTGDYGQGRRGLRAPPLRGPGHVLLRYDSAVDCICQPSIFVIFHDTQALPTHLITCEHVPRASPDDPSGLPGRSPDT
Procedure: Cells were lysed in RIPA lysis buffer [10 mM Tris pH 7.4; 150 mM NaCl; 1% NP-40; 1% desoxycholate; 0,1% SDS; protease inhibitor cocktail (Sigma-Aldrich) and 10 μM olaparib (Selleck Chemicals)], and lysates were analyzed via SDS-PAGE and immunoblotting using specific anti-PARP10 (Eurogentec),[93] anti-MAR/PAR (Cell Signaling, E6F6A, anti-poly/Mono-ADP-ribose antibody), and anti-α-tubulin (B 5-1-2, Sigma-Aldrich) antibodies.

[1] = Thermodynamic water solubility; type: physicochemical; settings: distilled water, r.t.
Procedure: Each solid compound (1 mg) was added to 1 mL of distilled water. Each sample was mixed at r.t. in a shaker water bath 24 h. The resulting suspension was filtered through a 0.45 μm nylon filter (Acrodisc), and the solubilized compound was quantified in triplicate using UV/LC–MS method reported above by comparison with the appropriate calibration curve that was obtained from samples of the compound dissolved in methanol at different concentrations.[94]

[2] = PAMPA, blood brain barrier (BBB) permeability; type: in vitro ADME; settings: brain polar lipid; for Papp at 5 h, 500 μM: pH 7.4, 5 h
Procedure: Each “donor solution” was prepared from a solution of the appropriate compound (DMSO, 1 mM) diluted with phosphate buffer (pH 7.4, 0.025 M) up to a final concentration of 500 μM. […] Donor solution (150 μL) was added to each well of the filter plate and to each well of the acceptor plate was added 300 μL of solution (50% DMSO in phosphate buffer). The sandwich plate was assembled and incubated for 5 h at r.t. After the incubation time, the plates were separated, and the samples were taken from both the donor and acceptor wells, and the amount of compound was measured by UV/LC–MS. All compounds were tested in three independent experiments. […] Drug concentration is estimated by using the peak area integration. Membrane retentions (%) were calculated according to the following equation [drawing 2] where r is the ratio between drug concentration in the acceptor and equilibrium concentration and D, A, and Eq represent drug concentration in the donor, acceptor, and equilibrium solution, respectively.

[3] = read-out: water solubility (log s) (converted)

| Compound | IC50 (PARP16) [µM] | inhibition of auto-MARylation of overexpressed PARP10 in cells (PARP10) | solubility at 24 h ([1]; read-out: water solubility) [µg/mL] | solubility at 24 h [1, 3] [µM] | BBB RM % (retention membrane percentage) [2] [%] | Papp at 5 h, 500 μM [2] [×10⁻⁶ cm/s] |
| --- | --- | --- | --- | --- | --- | --- |
| Cc1ccc2c(c1)sc1nnc(N)n12 [Compound 21, 7-Methyl[1,2,4]triazolo[3,4-b][1,3]benzothiazol-3-amine] | 5.2 | effectively inhibited | 37.6 | 184 | 5.3 | 0.475 |
| COc1ccc(OC)c2c1sc1nnc(N)n12 [Compound 27, 5,8-Dimethoxy[1,2,4]triazolo[3,4-b][1,3]benzothiazol-3-amine] | 3.4 | effectively inhibited | 12.6 | 50.4 | 3.4 | 0.143 |
